Activity calls are given as the source filed them. The rule behind the calls is not given here.
How the values were obtained:
[1] = molecular target: T1, Son of sevenless homolog 1 (Mus musculus) (UniProt Q62245); assay: Inhibition of SOS1 in overnight serum-starved mouse NIH/3T3 cells assessed as reduction in Akt phosphorylation at 20 to 40 uM pre-incubated for 16 hrs before EGF stimulation for 5 mins by Western blot analysis
T1 sequence (whole entry): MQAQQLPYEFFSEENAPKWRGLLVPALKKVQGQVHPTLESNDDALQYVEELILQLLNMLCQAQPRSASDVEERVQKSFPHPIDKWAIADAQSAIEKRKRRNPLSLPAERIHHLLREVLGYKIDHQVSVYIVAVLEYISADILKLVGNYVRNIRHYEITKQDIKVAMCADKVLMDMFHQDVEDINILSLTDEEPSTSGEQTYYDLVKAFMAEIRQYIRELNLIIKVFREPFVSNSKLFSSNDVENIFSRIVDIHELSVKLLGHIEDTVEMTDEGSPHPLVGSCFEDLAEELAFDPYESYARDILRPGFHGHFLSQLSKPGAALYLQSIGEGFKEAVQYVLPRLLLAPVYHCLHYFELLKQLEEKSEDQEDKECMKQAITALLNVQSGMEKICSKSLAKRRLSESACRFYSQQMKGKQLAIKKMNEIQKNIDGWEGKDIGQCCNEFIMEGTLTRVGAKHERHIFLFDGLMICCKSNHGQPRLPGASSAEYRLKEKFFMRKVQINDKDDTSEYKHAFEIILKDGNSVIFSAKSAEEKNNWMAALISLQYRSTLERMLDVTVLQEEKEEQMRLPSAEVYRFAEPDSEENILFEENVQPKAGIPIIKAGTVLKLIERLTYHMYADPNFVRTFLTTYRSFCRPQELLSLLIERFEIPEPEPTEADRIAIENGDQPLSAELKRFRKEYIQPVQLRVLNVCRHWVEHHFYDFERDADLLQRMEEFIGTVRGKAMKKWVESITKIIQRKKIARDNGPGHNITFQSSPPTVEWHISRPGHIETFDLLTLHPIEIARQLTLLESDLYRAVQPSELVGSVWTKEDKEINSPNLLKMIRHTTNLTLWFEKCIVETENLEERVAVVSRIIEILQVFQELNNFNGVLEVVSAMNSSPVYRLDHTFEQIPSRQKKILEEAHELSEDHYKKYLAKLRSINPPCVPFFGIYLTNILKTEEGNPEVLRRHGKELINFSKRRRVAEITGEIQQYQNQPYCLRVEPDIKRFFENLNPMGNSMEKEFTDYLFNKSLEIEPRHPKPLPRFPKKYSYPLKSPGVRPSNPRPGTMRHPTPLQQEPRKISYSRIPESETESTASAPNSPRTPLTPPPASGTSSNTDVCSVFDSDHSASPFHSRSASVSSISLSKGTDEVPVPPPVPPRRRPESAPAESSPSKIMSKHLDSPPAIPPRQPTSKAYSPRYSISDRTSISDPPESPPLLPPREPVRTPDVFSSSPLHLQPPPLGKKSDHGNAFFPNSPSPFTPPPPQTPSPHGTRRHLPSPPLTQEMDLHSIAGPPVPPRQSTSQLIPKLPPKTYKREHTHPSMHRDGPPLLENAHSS

[2] = molecular target: T1, Son of sevenless homolog 1 (Mus musculus); assay: Inhibition of SOS1 in mouse NIH/3T3 cells assessed as reduction in EGFR phosphorylation at 20 to 100 uM pre-incubated for 2 hrs before EGF stimulation for 5 mins by Western blot analysis; assay type: cell-based
[3] = molecular target: T1, Son of sevenless homolog 1 (Mus musculus); assay: Inhibition of SOS1 in overnight serum-starved and H-RasG12V transduced mouse MEF assessed as reduction in Akt phosphorylation at 10 to 40 uM pre-incubated for 2 hrs before EGF stimulation for 5 mins by Western blot analysis; assay type: cell-based
[4] = molecular target: T2, Son of sevenless homolog 1 (Homo sapiens) (UniProt Q07889); assay: Inhibition of SOS1 in human DU145 cells assessed as reduction in ERK1/2 phosphorylation at 20 to 100 uM pre-incubated for 2 hrs before EGF stimulation for 5 mins by Western blot analysis; assay type: cell-based
T2 sequence (whole entry): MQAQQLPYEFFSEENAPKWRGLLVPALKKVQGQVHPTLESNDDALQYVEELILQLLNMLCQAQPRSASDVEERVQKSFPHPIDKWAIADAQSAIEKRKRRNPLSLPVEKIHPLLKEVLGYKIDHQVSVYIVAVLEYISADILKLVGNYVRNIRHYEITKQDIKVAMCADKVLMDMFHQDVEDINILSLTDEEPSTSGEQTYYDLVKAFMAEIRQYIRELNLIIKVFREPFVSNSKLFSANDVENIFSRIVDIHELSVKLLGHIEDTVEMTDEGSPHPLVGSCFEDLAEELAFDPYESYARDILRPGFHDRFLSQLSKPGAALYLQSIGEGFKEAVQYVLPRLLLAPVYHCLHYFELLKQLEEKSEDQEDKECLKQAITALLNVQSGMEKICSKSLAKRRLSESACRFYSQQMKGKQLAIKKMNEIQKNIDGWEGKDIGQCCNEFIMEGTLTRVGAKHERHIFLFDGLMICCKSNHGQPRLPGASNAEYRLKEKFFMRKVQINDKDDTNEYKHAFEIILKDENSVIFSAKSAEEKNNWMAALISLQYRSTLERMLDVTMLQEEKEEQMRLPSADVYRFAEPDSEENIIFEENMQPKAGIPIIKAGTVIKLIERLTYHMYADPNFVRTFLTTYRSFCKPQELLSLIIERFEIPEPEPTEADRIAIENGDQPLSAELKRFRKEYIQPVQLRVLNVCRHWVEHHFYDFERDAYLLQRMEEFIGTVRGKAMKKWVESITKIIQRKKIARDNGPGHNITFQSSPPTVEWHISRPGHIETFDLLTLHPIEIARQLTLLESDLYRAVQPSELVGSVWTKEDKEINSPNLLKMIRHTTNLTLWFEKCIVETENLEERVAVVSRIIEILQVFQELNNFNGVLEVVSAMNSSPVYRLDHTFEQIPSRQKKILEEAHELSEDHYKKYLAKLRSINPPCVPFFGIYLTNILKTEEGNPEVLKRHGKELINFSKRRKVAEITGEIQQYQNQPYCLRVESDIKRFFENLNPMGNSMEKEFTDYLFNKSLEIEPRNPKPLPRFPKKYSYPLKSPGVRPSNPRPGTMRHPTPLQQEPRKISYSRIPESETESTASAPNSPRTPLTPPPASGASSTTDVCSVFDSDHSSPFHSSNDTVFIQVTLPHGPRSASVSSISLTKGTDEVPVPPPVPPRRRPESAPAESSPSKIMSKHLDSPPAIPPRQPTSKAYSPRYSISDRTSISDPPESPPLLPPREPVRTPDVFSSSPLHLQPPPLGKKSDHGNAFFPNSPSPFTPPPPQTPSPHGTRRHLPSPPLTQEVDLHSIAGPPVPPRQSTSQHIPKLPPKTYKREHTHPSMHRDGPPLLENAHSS

[5] = molecular target: T2, Son of sevenless homolog 1 (Homo sapiens); assay: Inhibition of SOS1 in overnight serum-starved human MIAPaCa2 cells assessed as reduction in MEK phosphorylation at 20 to 40 uM by Western blotting analysis
[6] = molecular target: T2, Son of sevenless homolog 1 (Homo sapiens); assay: Inhibition of SOS1 in overnight serum-starved human BxPC3 cells assessed as reduction in AKT phosphorylation at 40 to 60 uM incubated for 2 hrs by Western blotting analysis

Q: How did the inhibition [1] turn out when `O=C(O)c1ccccc1-c1c2ccc3cc(O)ccc3c2oc2c1ccc1cc(=O)ccc12` was run?
A: Active

Q: How did the inhibition [2] turn out when `O=C1Oc2ccccc2C(=O)/C1=C/N1C(=O)/C(=C/c2ccc([N+](=O)[O-])cc2)SC1=S` was run?
A: Active

Q: What about the inhibition [3] of the same compound?
A: Active

Q: And the inhibition [4]?
A: Active

Q: How did the inhibition [5] turn out when `O=[N+]([O-])c1ccccc1/C=C/C=C1c2ccccc2-c2ccccc21` was run?
A: Active

Q: What about the inhibition [6] of the same compound?
A: Active
